A short description of this series: physchem. As to conditions: saturated aqueous solution of the boron compound.

The text below walks through data of patent US6632449B2, “Compositions and kits comprising a defined boron compound and methods of their preparation” (The Procter & Gamble Co., priority 2001, dated 2003).

Text: The pKa of the boron compound utilized herein may be determined as follows. […] Using an auto titrator, titrate the solution according to standard methods. The pKa of the boron compound is the pH at which the inflection point occurs in the resulting titration curve.

As a reminder, the pKa is the pH at which an ionisable group is half protonated. In turn, `OB(O)O` [boric acid] yielded a pKa of approximately 9.2.
